According to ChEMBL document CHEMBL1201862, “PubChem BioAssay data set” (2004):
Calls of active or inactive are those of the source.

Columns and labels:
Assay type in all cases: functional
[1] = molecular target: Neuropeptides B/W receptor type 1 (Homo sapiens, UniProt P48145); assay: GPR7 antagonist potency, late-stage follow-up, cell-based, fluorescence, dose response, set 5 (AID 588566)
[2] = molecular target: Melanin-concentrating hormone receptor 1 (Homo sapiens, UniProt Q99705); assay: Late-stage fluorescence-based counterscreen for antagonists of the G-protein coupled receptor 7 (GPR7): cell-based dose response assay to identify antagonists of the melanin-concentrating hormone receptor 1 (MCHR1) Set 5.
Melanin-concentrating hormone receptor 1, sequence (Q99705 whole entry): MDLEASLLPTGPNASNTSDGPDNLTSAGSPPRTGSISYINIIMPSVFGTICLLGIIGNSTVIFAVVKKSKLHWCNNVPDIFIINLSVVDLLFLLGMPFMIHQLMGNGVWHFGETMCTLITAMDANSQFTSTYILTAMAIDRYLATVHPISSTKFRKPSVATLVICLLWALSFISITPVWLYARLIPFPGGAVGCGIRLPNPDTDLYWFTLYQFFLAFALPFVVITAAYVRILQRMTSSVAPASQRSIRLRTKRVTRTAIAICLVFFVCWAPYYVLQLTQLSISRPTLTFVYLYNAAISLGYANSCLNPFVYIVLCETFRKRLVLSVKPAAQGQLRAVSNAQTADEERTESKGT

[3] = Luminescence Cell-Based Dose Retest to Confirm Inhibitors of Cancer Stem Cells. [Related pubchem assays (depositor defined):AID2717, AID2721]; conditions: Homo sapiens
[4] = molecular target: T1, Microphthalmia-associated transcription factor (Homo sapiens, UniProt O75030); assay: TRPM1 promoter luciferase signal decrease, dose response, MITF inhibitor project, cell-based, SK-MEL-5, cherry-picked, set 3 (AID 493073)
T1 sequence (O75030 whole entry): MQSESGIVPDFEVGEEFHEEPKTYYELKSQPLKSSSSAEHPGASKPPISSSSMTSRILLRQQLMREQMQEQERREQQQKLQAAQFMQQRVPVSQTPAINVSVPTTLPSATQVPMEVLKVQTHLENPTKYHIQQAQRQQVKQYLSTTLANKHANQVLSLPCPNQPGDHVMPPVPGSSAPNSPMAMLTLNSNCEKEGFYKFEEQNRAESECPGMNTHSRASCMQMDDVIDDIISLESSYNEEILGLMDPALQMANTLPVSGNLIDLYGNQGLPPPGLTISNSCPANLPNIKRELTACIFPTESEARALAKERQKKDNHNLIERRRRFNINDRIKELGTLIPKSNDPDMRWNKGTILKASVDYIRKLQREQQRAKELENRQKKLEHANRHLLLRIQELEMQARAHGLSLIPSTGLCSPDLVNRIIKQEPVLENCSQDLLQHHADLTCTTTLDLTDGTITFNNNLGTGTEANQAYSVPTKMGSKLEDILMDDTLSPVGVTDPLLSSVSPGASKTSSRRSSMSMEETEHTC

[5] = molecular target: Melanocortin receptor 4 (Homo sapiens, UniProt P32245); assay: MC4R antagonist potency on cAMP, dose response, cell-based, TR-FRET, biased antagonists (AID 602298);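 note: antagonist potency against agonist-stimulated cAMP production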
Melanocortin receptor 4, sequence (P32245 whole entry): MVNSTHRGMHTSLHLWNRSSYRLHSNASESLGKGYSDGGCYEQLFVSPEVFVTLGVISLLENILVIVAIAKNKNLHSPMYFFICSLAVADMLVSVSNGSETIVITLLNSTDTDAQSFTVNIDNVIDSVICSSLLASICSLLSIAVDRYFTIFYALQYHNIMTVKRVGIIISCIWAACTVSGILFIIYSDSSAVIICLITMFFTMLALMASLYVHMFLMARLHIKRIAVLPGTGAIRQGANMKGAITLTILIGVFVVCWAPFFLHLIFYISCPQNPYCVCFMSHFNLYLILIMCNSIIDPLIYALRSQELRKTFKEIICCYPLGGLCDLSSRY

[6] = nonselective inhibitors of cellular cAMP signaling, dose response, counter-screen for MC4R biased antagonist project, cell-based, TR-FRET cAMP detection (AID 602305);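 note: U2OS cells stimulated with forskolin near its EC80 as the cAMP inducer; potency is for inhibition of forskolin-stimulated cAMP signaling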

Neuropeptides B/W receptor type 1, sequence (P48145 whole entry): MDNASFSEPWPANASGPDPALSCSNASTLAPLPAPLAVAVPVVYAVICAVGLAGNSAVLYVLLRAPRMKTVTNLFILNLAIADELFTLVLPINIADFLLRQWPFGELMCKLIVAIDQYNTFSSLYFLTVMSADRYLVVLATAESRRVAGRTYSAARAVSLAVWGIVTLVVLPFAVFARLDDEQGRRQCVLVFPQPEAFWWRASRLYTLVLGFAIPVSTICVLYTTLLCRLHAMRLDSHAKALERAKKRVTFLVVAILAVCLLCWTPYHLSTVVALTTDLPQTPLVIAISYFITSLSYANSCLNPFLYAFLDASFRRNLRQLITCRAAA

Row | Compound | IC50 [1] | IC50 [2] | AC50 [3] | AC50 [4] | IC50 [5] | IC50 [6]
1 | CCOC(=O)C(C#N)c1c(Cl)cnn(Cc2cccc3ccccc23)c1=O (stereo unspecified) | 0.571 µM (active) | 7.76 µM (active) |  |  |  | 
2 | CCOC(=O)C(=Cc1ccc(-n2ccnc2)cc1)C(=O)OCC |  |  | 2.95 µM (active) | 9.38 µM (active) | > 64.6 µM (inactive) | > 64.6 µM (inactive)
